Experimental data as given in ChEMBL document CHEMBL1150249, “Antiglioma action of xanthones from Gentiana kochiana: Mechanistic and structure-activity requirements” (Bioorg Med Chem, 2008).
Activity calls are given as the source filed them. The rule behind the calls is not given here.

Experiments:
U-251 [1] = assay: Antiproliferative activity against human U251 cells assessed as cell number after 48 hrs by crystal violet assay; assay type: functional, cell-based; conditions: U-251, 48 h
C6 [2] = assay: Antiproliferative activity against rat C6 cells assessed as cell number after 48 hrs by crystal violet assay; assay type: functional, cell-based; conditions: C6, 48 h
[3] = Inhibition of bovine brain tubulin by microtubule depolymerization assay; design: species or system Bos taurus
[4] = Antiproliferative activity against Albino Oxford rat primary astrocytes assessed as cell number after 48 hrs by crystal violet assay; assay type: cell-based; conditions: astrocyte
C6 [5] = assay: Induction apoptosis in rat C6 cells at 50 uM after 36 hrs by flow cytometry relative to control; assay type: functional
U-251 [6] = assay: Antiproliferative activity against human U251 cells assessed as cell number after 24 hrs by crystal violet assay; assay type: functional, cell-based
C6 [7] = assay: Induction apoptosis in rat C6 cells assessed as caspase activation at 50 uM after 36 hrs by flow cytometry relative to control; assay type: functional
C6 [8] = assay: Cell cycle arrest in rat C6 cells assessed as accumulation at G2/M phase at 50 uM after 24 hrs by flow cytometry relative to control; assay type: functional
C6 [9] = assay: Induction necrosis in rat C6 cells at 50 uM after 36 hrs by flow cytometry relative to control; assay type: functional
C6 [10] = assay: Cell cycle arrest in rat C6 cells assessed as accumulation at G0/G1 phase at 50 uM after 24 hrs by flow cytometry relative to control; assay type: functional
C6 [11] = assay: Antiproliferative activity against rat C6 cells assessed as mitochondrial dehydrogenase activity after 72 hrs by MTT assay; assay type: functional, cell-based
U-251 [12] = assay: Antiproliferative activity against human U251 cells assessed as mitochondrial dehydrogenase activity after 72 hrs by MTT assay; assay type: functional, cell-based
C6 [13] = assay: Cell cycle arrest in rat C6 cells assessed as accumulation at S phase at 50 uM after 24 hrs by flow cytometry relative to control; assay type: functional
C6 [14] = assay: Antiproliferative activity against rat C6 cells assessed as cell number after 24 hrs by crystal violet assay; assay type: functional, cell-based
[15] = Antiproliferative activity against Albino Oxford rat primary astrocytes assessed as mitochondrial respiration after 48 hrs by MTT assay; assay type: cell-based; conditions: astrocyte
U-251 [16] = assay: Antiproliferative activity against human U251 cells assessed as cell number after 72 hrs by crystal violet assay; assay type: functional, cell-based
C6 [17] = assay: Induction of apoptosis in rat C6 cells assessed as change in morphology at 50 uM after 48 hrs by bright field microscopy; assay type: functional, cell-based
U-251 [18] = assay: Antiproliferative activity against human U251 cells assessed as mitochondrial dehydrogenase activity after 24 hrs by MTT assay; assay type: functional, cell-based
[19] = Antiproliferative activity against Albino Oxford rat peritoneal macrophages assessed as mitochondrial respiration after 48 hrs by MTT assay; assay type: cell-based; conditions: macrophage
[20] = Antiproliferative activity against Albino Oxford rat primary astrocytes assessed as change in morphology by bright field microscopy; assay type: cell-based; conditions: astrocyte
C6 [21] = assay: Antiproliferative activity against rat C6 cells assessed as cell number after 72 hrs by crystal violet assay; assay type: functional, cell-based
C6 [22] = assay: Induction of mitochondrial membrane potential depolarization in rat C6 cells assessed as increase in green to red fluorescence ratio at 50 uM after 24 hrs by flow cytometry; assay type: functional, cell-based
C6 [23] = assay: Induction of reactive oxygen species production in rat C6 cells at 50 uM after 36 hrs by flow cytometry; assay type: functional, cell-based
C6 [24] = assay: Antiproliferative activity against rat C6 cells assessed as mitochondrial dehydrogenase activity after 24 hrs by MTT assay; assay type: functional, cell-based
[25] = Antiproliferative activity against Albino Oxford rat peritoneal macrophages assessed as cell number after 48 hrs by crystal violet assay; assay type: cell-based; conditions: macrophage
C6 [26] = assay: Antiproliferative activity against rat C6 cells assessed as cell number after 48 hrs by crystal violet assay in presence of N-acetyl-cysteine; assay type: functional, cell-based
C6 [27] = assay: Antiproliferative activity against rat C6 cells assessed as caspase activation at 50 uM after 36 hrs by flow cytometry in presence of N-acetyl-cysteine; assay type: functional, cell-based

Work on COc1cc(O[C@@H]2O[C@H](CO)[C@@H](O)[C@H](O)[C@H]2O)c2c(=O)c3c(OC)c(O)ccc3oc2c1 yielded an IC50 (U-251 [1]) of over 100 µM and an IC50 (C6 [2]) of over 100 µM.

In the case of COc1cc(O)c2c(=O)c3c(O)ccc(O)c3oc2c1 [BELLIDIFOLIN], the IC50 (U-251 [1]) is reported as over 100 µM, the IC50 (C6 [2]) is reported as over 100 µM and the IC50 [3] is reported as over 50 µM.

COc1cc(O)c2c(=O)c3c(OC)c(OC)ccc3oc2c1 [DECUSSATIN] showed an IC50 (U-251 [1]) of over 100 µM and an IC50 (C6 [2]) of over 100 µM.

Molecule O=c1c2c(O)cc(O)cc2oc2c(O)ccc(O)c12 [DEMETHYLBELLIDIFOLIN] has an IC50 (U-251 [1]) of over 100 µM, an IC50 (C6 [2]) of over 100 µM and an IC50 [3] of over 50 µM.

With COc1cc(O[C@@H]2O[C@H](CO[C@@H]3OC[C@@H](O)[C@H](O)[C@H]3O)[C@@H](O)[C@H](O)[C@H]2O)c2c(=O)c3c(OC)c(O)ccc3oc2c1 [GENTIABAVAROSIDE] the IC50 (U-251 [1]) was over 100 µM and the IC50 (C6 [2]) was over 100 µM.

With COc1cc(O)c2c(=O)c3c(O)c(O)ccc3oc2c1 [GENTIAKOCHIANIN] the Activity [4] was “Non-toxic”, the Activity (C6 [5]) was 24.2% and the Activity (U-251 [6]) was “Active”. The Activity (C6 [7]) was 19.7%, the Activity (C6 [8]) was 52.5% and the Activity (C6 [9]) was 5.9%. For the same molecule, the Activity (C6 [10]) was 33.7%, the Activity (C6 [11]) was “Active” and the Activity (U-251 [12]) was “Active”. The IC50 (U-251 [1]) was 27.3 µM, the Activity (C6 [13]) was 10.6% and the Activity (C6 [14]) was “Active”. For the same molecule, the Activity [15] was “Non-toxic”, the Activity (U-251 [16]) was “Active” and the Activity (C6 [17]) was “Active”. For the same molecule, the Activity (U-251 [18]) was “Active”, the Activity [19] was “Non-toxic” and the Activity [20] was “Non-toxic”. The Activity (C6 [21]) was “Active”, the Activity (C6 [22]) was “Active” and the IC50 (C6 [2]) was 31.4 µM. For the same molecule, the Activity (C6 [23]) was “Active”, the Activity (C6 [24]) was “Active” and the Activity [25] was “Non-toxic”. It also gave an IC50 [3] of 18 µM.

For COc1cc(O)c2c(=O)c3c(OC)c(O)ccc3oc2c1 [GETIACAULEIN], the Activity (C6 [26]) was “Active”, the Activity [4] was “Non-toxic” and the Activity (C6 [5]) was 4.5%. The Activity (C6 [27]) was “Active”, the Activity (U-251 [6]) was “Active” and the Activity (C6 [7]) was 6%. For the same molecule, the Activity (C6 [8]) was 18.8%, the Activity (C6 [9]) was 5.5% and the Activity (C6 [10]) was 73.2%. The Activity (C6 [11]) was “Active”, the Activity (U-251 [12]) was “Active” and the IC50 (U-251 [1]) was 53.2 µM. The Activity (C6 [13]) was 5.8%, the Activity (C6 [14]) was “Active” and the Activity [15] was “Non-toxic”. For the same molecule, the Activity (U-251 [16]) was “Active”, the Activity (U-251 [18]) was “Active” and the Activity [19] was “Non-toxic”. For the same molecule, the Activity [20] was “Non-toxic”, the Activity (C6 [21]) was “Active” and the Activity (C6 [22]) was “Active”. For the same molecule, the IC50 (C6 [2]) was 56.6 µM, the Activity (C6 [23]) was “Active” and the Activity (C6 [24]) was “Active”. For the same molecule, the Activity [25] was “Non-toxic” and the IC50 [3] was over 50 µM.

With COc1cc(O[C@@H]2O[C@H](CO[C@@H]3OC[C@@H](O)[C@H](O)[C@H]3O)[C@@H](O)[C@H](O)[C@H]2O)c2c(=O)c3c(O)c(O)ccc3oc2c1 [ISOGENTIAKOCHIANOSIDE] the IC50 (U-251 [1]) was over 100 µM and the IC50 (C6 [2]) was over 100 µM.

CC(=O)O[C@H]1C(=O)[C@@]2(C)[C@H]([C@H](OC(=O)c3ccccc3)[C@]3(O)C[C@H](OC(=O)[C@H](O)[C@@H](NC(=O)c4ccccc4)c4ccccc4)C(C)=C1C3(C)C)[C@]1(OC(C)=O)CO[C@@H]1C[C@@H]2O [PACLITAXEL] showed an IC50 [3] of 2.4 µM.
